# Values of other authors as cited in patent publication US6432422B1, “Creams containing vitamin D3 derivatives” (Chugai Seiyaku Kabushiki Kaisha, priority 1997, dated 2002).
# Key:
# [1] = test system: epidermal cells
# [2] = organic solvents such as ethanol and chloroform
smiles,measurement,setting,value
"C=C1/C(=C\C=C2/CCC[C@]3(C)[C@@H]([C@H](C)OCCC(C)(C)O)CC[C@@H]23)C[C@@H](O)C[C@@H]1O [Maxacalcitol, 1α,3β-dihydroxy-20α-(3-hydroxy-3-methylbutyloxy)-9,10-seco-5,7,10(19)-pregnatriene]",stability in aqueous solutions,aqueous solutions,unstable in aqueous solutions
same,stability in base materials,base materials such as petrolatum,very high stability
same,solubility in organic solvents,[2],highly soluble
same,stability in organic solvents,[2],dramatically improved stability
same,solubility in water,water,scarcely soluble in water
same,effects on epidermal cells,[1],epidermal cell growth-inhibiting and differentiation-inducing effects
